Patent publication US12410152B2, “Oxazole and thioazole-type cullin ring ubiquitin ligase compounds and uses thereof” (Proxygen GmbH, priority 2019, dated 2025)

Legend:
[1] = tested on: KBM7-Cas9 cells; test: CRISPR/Cas9 resistance screens (genome-wide Brunello and CRL-focused sgRNA libraries); type: cell-based, human; conditions: two weeks continuous drug treatment, start 4xEC50
Procedure: 293T cells seeded on 15 cm culture plates 16h before were transfected with 5 μg Brunello pooled library (Addgene #73178; 2-vector system), 2.5 μg pMD2.G (Addgene #12259), and 3.75 μg psPAX2 (Addgene #12260) using PolyFect (Qiagen) according to the manufacturer's protocol. Viral supernatant was harvested 72h after transfection and concentrated using Lenti—X-concentrator (Takara), according to the manufacturer's protocol. Concentrated viral supernatant was stored in aliquots at −80° C. and titrated to achieve a MOI of 0.2-0.3.
250 million KBM7-Cas9 cells were transduced at MOI 0.23, yielding a calculated library representation of 668 cells/sgRNA (library representation=50 million cells). For transduction, 20 μL of concentrated viral supernatant was added to 5 million cells in 1.5 mL IMDM and 8 μg/mL polybrene in 6-well plates. Plates were centrifuged at 2000 rpm for 1 h at 30° C. in a benchtop centrifuge, 0.5 mL IMDM were added and then incubated at 37° C. overnight. The next day, transduced cells were pooled and diluted. Pools were selected with 1 μg/mL puromycin for 5 days. Three independent resistance screens were performed with the library using drugs at starting concentrations of 4×EC50. Selective drug treatment was performed on 50 million cells/drug at a seeding density of 500,000 cells/mL. Every 5 days, cells were pooled, counted and re-seeded to 50 million cells in 100 mL, applying fresh drug. […]
De-multiplexed raw reads were processed to count sgRNA spacer abundance using a custom script. The first 20 bp of the trimmed reads were collected and aligned against the Brunello spacer index using Bowtie2. Spacers were counted using cut-f 3|sort|uniq -c on the aligned SAM files. […] Log 2 fold changes of drug treatment vs DMSO were calculated from normalized counts, omitting spacers with no reads in the DMSO condition. The enrichment rank of each spacer sequence was expressed as a fraction of the total number of spacers, so that the most enriched spacer is assigned a perturbation strength of 1, in accordance with the STARS algorithm. […]

[2] = tested on: CDK12/13; test: CDK12/13 destabilization (expression proteomics and Western blot); type: cell-based, human; conditions: KBM7 cells
Procedure: The hypomorphic phenotype of the mutated UBE2M allele in KBM7 cells (KBM7 UBE2M^mut cells) was assessed. In this regard, CRISPR/Cas9-induced mutation of UBE2M inactivated CRL activity including CRL4^CRBN and CRL2^VHL. […] Additionally, CCNK destabilization by all three compounds was validated via time-resolved immunoblots wherein CCNK degradation was evident after two hours (FIG. 19c).
PBS-washed cell pellets were lysed in 50 mM Tris pH 7.9, 8M Urea and 1% CHAPS and incubated with shaking at 4° C. for at least 30 min. 20 μg of supernatants were run and transferred for detection. Antibodies used: CUL1 (Santa Cruz Biotechnology, sc-1276), CUL2 (Sigma-Aldrich, SAB2501565-100), CUL3 (Cell Signaling Technology, 2759), CUL4A (Cell Signaling Technology, 2699S), CUL4B (Proteintech, 12916-1-AP), CUL5 (Santa Cruz Biotechnology, sc-373822), UBE2M (Santa Cruz Biotechnology, sc-390064), DDB1 (Cell Signaling Technology, 5428S), CCNK (Bethyl, A301-939A), CDK12 (Cell Signaling Technology, 11973S), CDK13 (Bethyl, A301-458A), RBM39 (1:500, Santa Cruz Biotechnology sc-376531), V5 (Cell Signaling Technology, 13202), Ubiquityl-Histone H2A (K119) (Cell Signaling, 8240-20). ACTIN (Sigma-Aldrich, A5441), VINCUL1N (Santa Cruz Biotechnology, sc-25336). Secondary antibodies anti-mouse/rabbit/goat (Jackson ImmunoResearch 115-035-003, 111-035-003 and 705-035-003).
Comparison of overall proteome-wide changes in KBM7 cells treated with IC020772.1 (2.5 μM), IC021313.2 (7 μM) or T6938051 (3.5 μM) for 5 h and 12h, using quantitative proteomics based on isobaric tagging.

Structure (SMILES) | gene enrichment in drug-tolerant populations (genome-wide CRISPR screen) [1] | CDK12/13 destabilization [2]
Cc1ccc(C(=O)N2CSCC2C(=O)N=c2[nH]cc(C)s2)o1 (stereo not drawn) [Compound T6938051] | striking enrichment in only four genes | milder CDK12/13 destabilization
O=C(CSc1nnc2c(n1)[nH]c1ccccc12)Nc1ccc(Cl)cn1 [IC020772.1] | striking enrichment in only four genes | milder CDK12/13 destabilization
O=C(CSc1nc2ccccc2[nH]1)Nc1ccc(Cl)cn1 [IC021313.2] | striking enrichment in only four genes | milder CDK12/13 destabilization
